From ChEMBL document CHEMBL6096669, “Design and synthesis of novel derivatives of bisepoxylignans as potent anti-inflammatory agents involves the modulation of the M1/M2 microglia phenotype via TLR4/NF-κB signaling pathway” (Eur J Med Chem, 2025)
Calls of active or inactive are those of the source. The rule behind the calls is not given here.

Experiments:
[1] = Cytotoxicity against mouse BV-2 cells assessed as cell viability at 10 uM measured after 24 hrs by MTT assay relative to control; assay type: toxicity, cell-based; conditions: read-out: Activity
[2] = Inhibition of LPS-induced NO production in mouse BV-2 cells at 10 uM measured after 24 hrs followed by induced with LPS for another 24 hrs by ELISA relative to control; assay type: functional
[3] = test system: BV-2; assay: Anti-inflammatory activity against LPS-induced mouse BV-2 cells assessed as decrease in LPS-induced iNOS mRNA expression at 10 to 20 uM incubated for 4 hrs followed by LPS induced for 12 hrs by RT-PCR analysis relative to control; assay type: functional, cell-based; conditions: dose 10-20 µM, time 16.0 hrs
[4] = test system: BV-2; assay: Anti-inflammatory activity against LPS-induced mouse BV-2 cells assessed as decrease in LPS-induced IL-6 mRNA expression at 5 uM incubated for 4 hrs followed by LPS induced for 12 hrs by RT-PCR analysis relative to control; assay type: functional, cell-based; conditions: time 16.0 hrs
[5] = test system: BV-2; assay: Anti-inflammatory activity against LPS-induced mouse BV-2 cells assessed as decrease in LPS-induced Cyclooxygenase-2 mRNA expression at 20 uM incubated for 4 hrs followed by LPS induced for 12 hrs by RT-PCR analysis relative to control; assay type: functional, cell-based; conditions: time 16.0 hrs
[6] = test system: BV-2; assay: Anti-inflammatory activity against LPS-induced mouse BV-2 cells assessed as decrease in LPS-induced TNFalpha production incubated for 4 hrs followed by LPS induced for 24 hrs by Western blotting analysis; assay type: functional, cell-based; conditions: dose 5-20 µM, time 28.0 hrs
[7] = test system: BV-2; assay: Anti-inflammatory activity against LPS-induced mouse BV-2 cells assessed as decrease in LPS-induced iNOS production incubated for 4 hrs followed by LPS induced for 24 hrs by Western blotting analysis; assay type: functional, cell-based; conditions: dose 5-20 µM, time 28.0 hrs
[8] = test system: BV-2; assay: Anti-inflammatory activity against LPS-induced mouse BV-2 cells assessed as decrease in LPS-induced TLR4 production incubated for 4 hrs followed by LPS induced for 24 hrs by […]; assay type: functional, cell-based; conditions: dose 5-20 µM, time 28.0 hrs
[9] = Acute toxicity in C57BL/6 mouse assessed as morphological changes in liver by measuring signs of inflammation at 500 mg/kg, po single dose measured on day 8 by H and E staining based assay; assay type: organism-based; conditions: in vivo, 192 h, time 8 day
[10] = Acute toxicity in C57BL/6 mouse assessed as morphological changes in kidney by measuring signs of inflammation at 500 mg/kg, po single dose measured on day 8 by H and E staining based assay; assay type: organism-based; conditions: in vivo, 192 h, time 8 day
[11] = Acute toxicity in C57BL/6 mouse assessed as change in ALT level at 500 mg/kg, po single dose measured on day 8 by ALT/GPT test kit; assay type: organism-based; conditions: in vivo
[12] = Biodistribution in C57BL/6 mouse liver at 20 mg/kg, IG measured after 15 mins; assay type: ADME, organism-based; conditions: in vivo, po, 0.25 h
[13] = Biodistribution in C57BL/6 mouse lung at 20 mg/kg, IG measured after 15 mins; assay type: ADME, organism-based; conditions: in vivo, po, 0.25 h
[14] = Biodistribution in C57BL/6 mouse kidney at 20 mg/kg, IG measured after 15 mins; assay type: ADME, organism-based; conditions: in vivo, po, 0.25 h
[15] = Biodistribution in C57BL/6 mouse spleen at 20 mg/kg, IG measured after 15 mins; assay type: ADME, organism-based; conditions: in vivo, po, 0.25 h
[16] = Half life in rat at 20 mg/kg, po single dose; assay type: ADME, organism-based; conditions: in vivo
[17] = Tmax in rat at 20 mg/kg, po single dose; assay type: ADME, organism-based; conditions: in vivo
[18] = AUCall in rat at 20 mg/kg, po single dose; assay type: ADME, organism-based; conditions: in vivo
[19] = AUMClast in rat at 20 mg/kg, po single dose; assay type: ADME, organism-based; conditions: in vivo
[20] = MRT in rat at 20 mg/kg, po single dose; assay type: ADME, organism-based; conditions: in vivo
[21] = Ratio of AUC in brain to serum in rat at 20 mg/kg, po single dose; assay type: ADME, organism-based
[22] = test system: Mus musculus; assay: Anti-neuroinflammatory activity against LPS-induced male C57BL/6 mouse assessed as suppression of LPS-induced IL-6 mRNA level at 20 mg/kg, po administered for 3 days followed by induced with LPS by tail vein injection by RT-PCR analysis; assay type: functional, organism-based; conditions: time 3.0 day
[23] = test system: Mus musculus; assay: Anti-neuroinflammatory activity against LPS-induced male C57BL/6 mouse assessed as suppression of LPS-induced TNF-alphamRNA level at 20 mg/kg, po administered for 3 days followed by induced with LPS by tail vein injection by RT-PCR analysis; assay type: functional, organism-based; conditions: time 3.0 day
[24] = test system: Mus musculus; assay: Anti-neuroinflammatory activity against LPS-induced male C57BL/6 mouse assessed as suppression of LPS-induced TLR4 protein level at 20 mg/kg, po administered for 3 days followed by induced with LPS by tail vein injection by Western blot analysis; assay type: functional, organism-based; conditions: time 3.0 day
[25] = test system: Mus musculus; assay: Anti-neuroinflammatory activity against LPS-induced male C57BL/6 mouse assessed as suppression of LPS-induced p-IkappaB-alpha protein level at 20 mg/kg, po administered for 3 days followed by induced with LPS by tail vein injection by Western blot analysis; assay type: functional, organism-based; conditions: time 3.0 day
[26] = test system: Mus musculus; assay: Anti-neuroinflammatory activity against LPS-induced male C57BL/6 mouse assessed as suppression of LPS-induced p-NF-kappaB protein level at 20 mg/kg, po administered for 3 days followed by induced with LPS by tail vein injection by Western blot analysis; assay type: functional, organism-based; conditions: time 3.0 day
[27] = test system: Mus musculus; assay: Anti-neuroinflammatory activity against LPS-induced male C57BL/6 mouse assessed as suppression of LPS-induced pathological changes in heart at 20 mg/kg, po administered for 3 days followed by induced with LPS by tail vein injection by hematoxylin-eosin staining based assay; assay type: functional, organism-based; conditions: time 3.0 day
[28] = test system: Mus musculus; assay: Anti-neuroinflammatory activity against LPS-induced male C57BL/6 mouse assessed as suppression of LPS-induced pathological changes in lung at 20 mg/kg, po administered for 3 days followed by induced with LPS by tail vein injection by hematoxylin-eosin staining based assay; assay type: functional, organism-based; conditions: time 3.0 day
[29] = test system: Mus musculus; assay: Anti-neuroinflammatory activity against LPS-induced male C57BL/6 mouse assessed as suppression of LPS-induced pathological changes in kidney at 20 mg/kg, po administered for 3 days followed by induced with LPS by tail vein injection by hematoxylin-eosin staining based assay; assay type: functional, organism-based; conditions: time 3.0 day
[30] = test system: Mus musculus; assay: Anti-neuroinflammatory activity against LPS-induced male C57BL/6 mouse assessed as suppression of LPS-induced pathological changes in liver at 20 mg/kg, po administered for 3 days followed by induced with LPS by tail vein injection by hematoxylin-eosin staining based assay; assay type: functional, organism-based; conditions: time 3.0 day
[31] = test system: Mus musculus; assay: Anti-neuroinflammatory activity against LPS-induced male C57BL/6 mouse assessed as suppression of LPS-induced neuronal damage by measuring increase in Nissl bodies at 20 mg/kg, po administered for 3 days followed by induced with LPS by tail vein injection; assay type: functional, organism-based; conditions: time 3.0 day
[32] = test system: BV-2; assay: Anti-inflammatory activity against LPS-induced mouse BV-2 cells assessed as decrease in LPS-induced Cyclooxygenase-2 production at 5 uM incubated for 4 hrs followed by LPS induced for 24 hrs by Western blotting analysis; assay type: functional, cell-based
[33] = test system: BV-2; assay: Anti-inflammatory activity against LPS-induced mouse BV-2 cells assessed as decrease in LPS-induced TNFalpha production at 5 to 10 uM incubated for 4 hrs followed by LPS induced for 24 hrs by Western blotting analysis; assay type: functional, cell-based; conditions: dose 5-10 µM
[34] = test system: Mus musculus; assay: Anti-neuroinflammatory activity against LPS-induced male C57BL/6 mouse assessed as suppression of LPS-induced p-I-kappaB-alpha protein level at 10 mg/kg, po administered for 3 days followed by induced with LPS by tail vein injection by Western blot analysis; assay type: functional, organism-based; conditions: time 3.0 day

SMILES: O=c1[nH]c2ccc(Nc3ncnc4c3ccn4Cc3ccc(F)cc3)cc2[nH]1
- viability at 24 h, 10 µM [1]: 95.3%
- inhibition at 10 µM [2]: 95%
- Activity [3]: Active
- Activity [4]: Not active; No Significant Effect Observed Vs Lps
- Activity [5]: Active
- Activity [6]: Dose-dependent-effect
- Activity [7]: Dose-dependent-effect
- Activity [8]: Dose-dependent-effect
- Activity [9]: Non-toxic
- Activity [10]: Non-toxic
- Activity [11]: Non-toxic
- Drug uptake [12]: Active
- Drug uptake [13]: Active
- Drug uptake [14]: Active
- Drug uptake [15]: Active
- half-life [16]: 5.91 h
- Tmax [17]: 1 h
- AUC [18]: 43600 ng·h/mL
- AUMClast [19]: 269972.2 hr.hr.ng/ml
- MRT [20]: 6.2 h
- Ratio [21]: 1.9%
- Activity [22]: Active
- Activity [23]: Active
- Activity [24]: Active
- Activity [25]: Active
- Activity [26]: Active
- Activity [27]: Active; Decreased Lps-Induced Visceral Injury (Cell Morphology, Hemorrhage, And Neutrophil Infiltration) And Maintaining Normal Cell Shape And Arrangement And Enhancing Infiltration Of Inflammatory Cells
- Activity [28]: Active; Decreased Lps-Induced Visceral Injury (Cell Morphology, Hemorrhage, And Neutrophil Infiltration) And Maintaining Normal Cell Shape And Arrangement And Enhancing Infiltration Of Inflammatory Cells
- Activity [29]: Active; Decreased Lps-Induced Visceral Injury (Cell Morphology, Hemorrhage, And Neutrophil Infiltration) And Maintaining Normal Cell Shape And Arrangement And Enhancing Infiltration Of Inflammatory Cells
- Activity [30]: Active; Decreased Lps-Induced Visceral Injury (Cell Morphology, Hemorrhage, And Neutrophil Infiltration) And Maintaining Normal Cell Shape And Arrangement And Enhancing Infiltration Of Inflammatory Cells
- Activity [31]: Active
- Activity [32]: Not active; No Significant Effect Observed Vs Lps
- Activity [33]: Not active; No Significant Effect Observed Vs Lps
- Activity [34]: Not active; No Significant Effect Observed Vs Lps
